Source: ChEMBL document CHEMBL4627261, “A panoramic review of IL-6: Structure, pathophysiological roles and inhibitors” (Bioorg Med Chem, 2020)

Key:
WEHI265.1 [1] = experiment: Antiinflammatory activity in LPS-induced mouse WEHI265.1 cells assessed as reduction in IL-6 level by ELISA; format: functional, cell-based
WEHI265.1 [2] = experiment: Antiinflammatory activity in LPS-induced mouse WEHI265.1 cells assessed as reduction in IL-6 level at 10 uM by ELISA relative to control; format: functional
RAW264.7 = experiment: Effect on IL-6 mRNA expression in mouse RAW264.7 cells at 10 ug/ml relative to control; format: functional
Homo sapiens [3] = species on record: Homo sapiens; experiment: Inhibition of PI3K (unknown origin) assessed as reduction in PI3K phosphorylation by cell based assay at 10 ug/ml relative to control
[4] = molecular target: RAC-alpha serine/threonine-protein kinase (Homo sapiens) (UniProt P31749); experiment: Inhibition of AKT (unknown origin) assessed as reduction in […] phosphorylation at 10 ug/ml by cell based assay relative to control
Chain of RAC-alpha serine/threonine-protein kinase (Homo sapiens) (P31749 whole entry): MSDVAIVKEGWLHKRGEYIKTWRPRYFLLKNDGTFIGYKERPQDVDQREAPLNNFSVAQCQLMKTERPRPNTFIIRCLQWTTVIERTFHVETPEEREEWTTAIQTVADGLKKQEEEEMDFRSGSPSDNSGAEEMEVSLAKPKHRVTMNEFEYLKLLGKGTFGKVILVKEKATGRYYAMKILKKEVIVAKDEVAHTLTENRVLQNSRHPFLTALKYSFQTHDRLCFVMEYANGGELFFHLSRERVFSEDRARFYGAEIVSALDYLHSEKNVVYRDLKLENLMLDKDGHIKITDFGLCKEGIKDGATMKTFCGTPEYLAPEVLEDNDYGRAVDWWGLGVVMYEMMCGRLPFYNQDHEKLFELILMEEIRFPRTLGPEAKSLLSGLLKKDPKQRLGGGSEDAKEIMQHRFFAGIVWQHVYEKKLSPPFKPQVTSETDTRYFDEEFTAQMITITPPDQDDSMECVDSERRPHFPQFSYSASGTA

Homo sapiens [5] = species on record: Homo sapiens; experiment: Inhibition of MAPK (unknown origin) assessed as reduction in […] phosphorylation by cell based assay at 10 ug/ml relative to control
Mus musculus = experiment: Antiinflammatory activity in LPS-induced mouse model assessed as reduction in IL-6 level in serum at 25 mg/kg, po relative to control; format: functional

| SMILES | IC50 (WEHI265.1 [1]) [nM] | inhibition at 10 µM (WEHI265.1 [2]) [%] | further results |
| --- | --- | --- | --- |
| O=c1c2c(n3c(c1-c1ccccc1)NCC3)CCC2 | 200 | 74 | – |
| Oc1ccc(-c2cncc(-c3ccc(O)cc3)n2)cc1 | – | 55 | – |
| COC(=O)CCC(=O)Nc1ccccc1C(=O)OC | – | – | Activity (RAW264.7): 33%; inhibition (Homo sapiens [3]): 51%; inhibition [4]: 70%; inhibition (Homo sapiens [5]): 54% |
| O=c1c2c(n3c(c1-c1ccccc1Cl)NCC3)CCC2 | 200 | 90 | – |
| CC(=O)Nc1ccccc1-c1c2n(c3c(c1=O)CCC3)CCN2 | 200 | 74 | – |
| CN1CCn2c3c(c(=O)c(-c4ccccc4)c21)CCC3 | 200 | 43 | – |
| Oc1ccc(-c2cncc(-c3ccc(O)cc3)c2)cc1 | – | 73 | inhibition in vivo at 25 mg/kg (Mus musculus): 71% |
| O=c1c2c(n3c(c1-c1ccccc1)OCC3)CCC2 | 200 | 20 | – |
| Nc1ccccc1-c1c2n(c3c(c1=O)CCC3)CCN2 | 200 | 82 | – |
| COc1ccccc1-c1c2n(c3c(c1=O)CCC3)CCN2 | 200 | 82 | – |
| O=c1c2c(n3c(c1-c1ccccc1)SCC3)CCC2 | 200 | 52 | – |
| Oc1ccc(-c2cccc(-c3ccc(O)cc3)c2)cc1 | – | 85 | inhibition in vivo at 25 mg/kg (Mus musculus): 88% |
| O=c1c2c(n3c(c1-c1ccccc1[N+](=O)[O-])NCC3)CCC2 | 200 | 73 | – |
